Three molecules from patent US12324818B2, “Generation of alveolar epithelial type 1 (AT1) cells” (TRUSTEES OF BOSTON UNIVERSITY, priority 2022, dated 2025) can be followed below.

What all share (type): cell-based, human
Assay [1] concerns iAT2s. Put plainly: AGERtdTomato reporter induction in BU3 NGAT iAT2s (flow cytometry, live imaging). To be noted: for effect on AGERtdTomato percentage and MFI: media containing L. The text has this:
FIG. 5A) BU3 NGAT iAT2s were passaged as usual into 3D Matrigel with CK+DCI+RI medium for 3 days. Medium was then kept the same or switched to LATS inhibitor-based media. CK DCI+L, DCI, or L DCI. (C=Chir, K=rhKGF, L=LATS-IN-1; “DCI” as defined in FIG. 2). FIG. 5B) Representative live fluorescence microscopy of iAT2s (BU3 NGAT clone) at 9 days after changing to the indicated medium, either without (FIG. 5B) or with (FIG. 5C) YAP5SA transduction (Scale bars=500 um in B; 50 um in FIG. 5C). FIG. 5D) Representative flow cytometry plots of NKX2-1GFP and AGERtdTomato 9 days post after changing to cach indicate medium. FIG. 5E) Cell counts and flow cytometry quantification of AGER tdTomato+ percentage and Mean Fluorescence Intensity (MFI) 9 days post medium change. One way ANOVA, N=3 per condition. FIG. 5F) Gene expression of AT1 and AT2 markers by whole well RT-qPCR. (1 way ANOVA, N=3 per condition). FIG. 5G) Whole mount immunofluorescence microscopy of BU3 NGAT organoids in L+DCI. Scale bar=50 um. FIG. 5H) Primary adult human AT2 cells (1° AT2s) were cultured as described 5 and 7 days post plating, medium was changed to published, human-serum containing Alveolar Differentiation Media (ADM) or L+DCI. Whole well RT-qPCR of selected genes 7 days post medium change. 1 way ANOVA, N=3 per condition. FIG. 5I) Experimental schematic: BU3 NGAT iAT1s were grown in L+DCI for 10 days, sorted on AGERtdTomato, and then plated in 3D Matrigel in either L+DCI or CK+DCI. Outgrowths of sorted cells were analyzed after an additional 9 days. FIG. 5J) Representative flow cytometry plots of AGERtdTomato+ outgrowth from (FIG. 5I). FIG. 5K) Quantification of indicated fluorescence (FACS), cell counts, or transcript expression (FIG. 5LL; whole well RT-qPCR) of cells from (FIG. 5I). Control sorted iAT1s in L are freshly sorted AGERtdTomato+ cells after 9 days in L+DCI. (N=3 per condition; K=Student's t test; L=1 way ANOVA). *p<0.05, **p<0.01, ***p<0.001, and […] for all panels.
(§1) iPSCs were first differentiated into iAT2s and passaged as above in 3D cultures in iAT2 medium (CK+DCI) supplemented for the first 3 days after passaging with 10 uM Y-27632 (Tocris). To generate iAT1s, 3 days after passaging iAT2s in 3D, the medium was replaced with “L+DCI”, consisting of [10 uM LATS-IN-1 (“L”; MedChemExpress Cat. No.: HY-138489), 50 nM dexamethasone (“D”; Sigma-Aldrich), 0.1 mM 8-bromoadenosine 3′,5′cyclic monophosphate sodium salt (Sigma-Aldrich; “C”), and 0.1 mM 3-isobutyl-1-methylxanthine (IBMX; Sigma-Aldrich; “I”)]. Cells were cultured up to 16 days in L+DCI in 3D while monitoring AGERtdTomatoexpression as detailed in the text.
0.05% trypsin was used to generate single cell suspensions which were resuspended in sort buffer [HBSS (ThermoFisher) with 2% FBS, 10 uM Y-27632 (Tocris)] with Live/dead stain [Calcein blue (Life technologies) or DRAQ7 (Abcam)]. Cells were sorted based on reporter expression: NKX2-1GFP and AGERtdTomatofor BU3 NGAT, or SFTPCtdTomatofor SPC2B2, as indicated in the text. Cell sorting was performed on a Moflo Astrios EQ (Beckman Coulter) and flow cytometry analysis was performed on an LSRII SORP (BD Biosciences) at the Boston University Flow Cytometry Core Facility. For Edu assays, the Click-iT Plus EdU Alexa Fluor 647 Flow Cytometry Assay Kit (Thermo Fisher Scientific) was used with EdU added 24 hours before cell isolation, and cells fixed in 4% paraformaldehyde (PFA) were analyzed on a Stratedigm (S1000EXI) cytometer with post-processing using Flow Jo software (BD Biosciences). For all other analyses, live non-fixed cells were sorted or analyzed as indicated in the text.
(A flow cytometer gives signals particle by particle.)

Assay [2] concerns iAT2s. Briefly: Withdrawal of Chir or KGF in YAP5SA-transduced BU3 NGAT iAT2s. The note with it: YAP5SA differentiation model. An excerpt:
FIG. 13A) BU3 NGAT iAT2s were passaged into 3D Matrigel in CK+DCI for 3 days, and then media was switched to media containing LATS-IN-1 and either Chir or KGF and grown for a further 11 days. Representative flow cytometry of NKX2-1GFPand AGERtdTomato. FIG. 13B) Quantification of AGERtdTomatocompared to CK DCI+L and DCI+L quantification in FIGS. 5A-5L. (N=3 per condition, 1 way ANOVA). FIG. 13C) BU3 NGAT iAT2s were transduced with either WT YAP or YAP5SA lentivirus in suspension with polybrene for 4 hours and then replated into 3D Matrigel in CK DCI. After 5 days, media was changed to withdraw one or both growth factors from the media. Cells were analyzed 11 days post media change. FIG. 13D) Cell counts of WT YAP and YAP5SA transduced cells in different medias (2 way ANOVA). First series is CK+DCI, second series is C+DCI, third series is K+DCI, fourth series is DCI. FIG. 13E) Representative flow cytometry of NKX2-1GFP and AGERtdTomato. FIG. 13F) Quantification of AGERtdTomatopercentage and Mean Fluorescence Intensity following YAP5SA transduction. (2 way ANOVA). First series is CK+DCI, second series is C+DCI, third series is K+DCI, fourth series is DCI. FIGS. 13G-13H) Gene expression of AT1 markers, YAP downstream targets, and AT2 markers by whole well RT-qPCR. (N=3, 2 way ANOVA). First series is CK+DCI, second series is C+DCI, third series is K+DCI, fourth series is DCI. […]

In assay [3] the test system is iAT2s. Briefly: Whole well RT-qPCR of AT1/AT2 markers in iAT2s in LATS inhibitor media. On the procedure: as §1
For RT-qPCR, whole well or sorted cells were collected and stored in Qiazol (Qiagen, 79306) prior to RNA isolation using RNeasy Plus Mini Kit according to the manufacturer's protocol (Qiagen, 74104), cDNA was then synthesized using MultiScribe™ Reverse Transcriptase (ThermoFisher 4311235). A QuantStudio instrument (Applied Biosciences) and predesigned Taqman probes were used and run in a 384-well format for 40 cycles. Relative expression was normalized to an 18S control and fold change over control cells was calculated using 2-ΔΔCt. Where indicated in the text, RNA extracts from adult primary human distal lung tissue explants, the kind gift of Barry Stripp (Cedars Sinai, Los Angeles) were employed as RT-qPCR controls. RNA was isolated via RNeasy Plus Mini Kit following manufacturer's protocol.

Regarding `Cc1c[nH]c(-c2cnc(NCCNc3ccc(C#N)cn3)nc2-c2ccc(Cl)cc2Cl)n1` [Chir, CHIR99021], in the assay with iAT2s [1], the “effect on AGERtdTomato percentage and MFI” value was “significantly inhibitory”. Moreover, the “effect on AGERtdTomato and AT1 markers by bulk RT-qPCR” value in the assay on iAT2s [2] was “inhibitory effects”.
As to `O=C(N=c1sccn1Cc1ccccc1)c1c[nH]c2ncccc12` [LATS-IN-1, N-(3-benzylthiazol-2(3H)-ylidene)-1H-pyrrolo[2,3-b]pyridine-3-carboxamide], the “AGERtdTomato induction, % of the NKX2-1GFP+ cells” value in the assay on iAT2s [1] (BU3 NGAT iAT2s in L+DCI, increasing over the following 2 weeks) came out at 84.97±1.23%. In the assay on iAT2s [1] (L supplementation of iAT2s), the “time to detectable AGERtdTomato induction in the NKX2-1+ population” value was no more than 72 h and the “time to morphologic changes resembling YAP5SA-transduced cells” value is on record as no more than 48 hours. The “iAT2s in which the AT1 program is driven” value with iAT2s [1] (complete serum free defined media containing LATS inhibitor) is given as “up to 97%”. The “dose yielding greatest frequency and brightness (MFI) of NKX2-1GFP/AGERtdTomato+ cells” value in the assay on iAT2s [1] (dose response testing, medium replaced day 3 after passaging, 2 weeks post passage) worked out at 10 µM. For the same molecule, in the assay on iAT2s [3] (iAT2 media vs medias containing LATS-IN-1), the NKX2-1 expression entry was “unchanged”. In the assay on iAT2s [3] (medias containing LATS-IN-1), the SFTPC expression entry is reported as “decreased”. Moreover, the “AGER, CAV1, PDPN, and CLIC5 expression” value in the assay with iAT2s [3] (whole well RT-qPCR, wells containing the LATS inhibitor) is listed as “significantly upregulated”.

B1: keratinocyte growth factor (KGF) protein (protein, UniProt P21781 32-194, looked up)
Fibroblast growth factor 7: CNDMTPEQMATNVNCSSPERHTRSYDYMEGGDIRVRRLFCRTQWYLRIDKRGKVKGTQEMKNNYNIMEIRTVAVGIVAIKGVESEFYLAMNKEGKLYAKKECNEDCNFKELILENHYNTYASAKWTHNGGEMFVALNQKGIPVRGKKTKKEQKTAHFLPMAIT
notes: recombinant human keratinocyte growth factor
For the molecule B1, the “effect on AGERtdTomato percentage and MFI” value in the assay on iAT2s [1] is listed as “significantly inhibitory”. Moreover, in the assay with iAT2s [2], the “effect on AGERtdTomato and AT1 markers by bulk RT-qPCR” value is recorded as “inhibitory effects”.
